Experimental data from PMC11861906, “Structural basis for lipid-mediated activation of G protein-coupled receptor GPR55” (Nature Communications, 2025).

Assays:
Type in all cases: cell-based
[1] = molecular target: GPR55 mutant G152W (Gα13) (Homo sapiens, UniProt Q9Y2T6, G152W); assay: BRET² G protein dissociation assay, GPR55 G152W with Gα13
From the text: (§1) To validate the functionality of the GPR55 cryo-EM construct, we conducted bioluminescence resonance energy transfer 2 (BRET²)-based G protein dissociation assays[46],[47] using an engineered heterotrimeric G13 protein. The N-terminal GFP fusion of the receptor was additionally modified with a G67A mutation to disrupt fluorescence properties. We employed human embryonic kidney (HEK) cells overexpressing wt or mutant GPR55 together with Gβ3, Gγ9-GFP, and Gα13 tagged with Renilla luciferase 8 (Rluc8).
(§2) G protein dissociation assays were performed according to the original protocols of the TRUPATH BRET² assay[47],[87] but with subtle modifications as previously described[61],[88],[89]. All reagents and cells were obtained from Thermo Fisher Scientific unless indicated otherwise. The coding sequences for the G protein biosensors[47] (Gα12-Rluc8, Gα13-Rluc8, wt Gβ3, and Gγ9-GFP), the wt GPR55, the construct used for cryo-EM (with GFP bearing a G67A mutation to disrupt fluorescence properties[48] for BRET² assays), GPR55 binding pocket mutants (G152^4.56F, G152^4.56W, N171^ECL2Q, N171^ECL2A, T176^5.33A, R253^6.62A), and the wt TBXA2R were codon-optimized for Homo sapiens, gene-synthesized, and sub-cloned into pcDNA^TM3.1(+) between NheI and HindIII restriction sites by GeneArt (Thermo Fisher Scientific). […] Freshly grown cells were washed with Dulbecco’s Balanced Salt Solution (DPBS, cat. #14200075) and detached using trypsin-ethylenediaminetetraacetic acid (trypsin-EDTA) (cat. #25300-062). Then, the cells were reconstituted to 500,000 cells per mL with fresh medium, and 1,000,000 cells were seeded into each well of a 6-well plate. After 3 h incubation at 37 °C and 5% CO2, adherent cells were transfected with 600 ng DNA (1:1:1:1 ratio of plasmid DNA for GPR55, wt Gβ3, Gγ9-GFP, and Gα12-Rluc8 or Gα13-Rluc8). Plasmid DNA was mixed with 1.5 µL Lipofectamine^TM 2000 (cat. #11668027) in Opti-MEM^TM medium (cat. #31985062) and incubated for 20 min. Then, the mixture was added to each well of the 6-well plate following 24 h incubation at 37 °C and 5% CO2. Transfected cells were washed with DPBS, detached using EDTA (Versene, cat. #15040066), and reconstituted into fresh medium at 500,000 cells mL^−1. From this suspension, 50,000 cells were seeded into each well of a white-bottom 96-well plate (Nunc^TM MicroWell^TM 96 wells, cat. #136101) following overnight incubation at 37 °C and 5% CO2. Then, the adherent cells were washed with assay medium [Hank’s balanced salt solution (HBSS, cat. #14065056) plus 20 mM HEPES pH 7.4 (cat. #15630056)] and finally reconstituted into 50 µL of the same medium. […] Methoxy e-Coelenterazine was used as luciferase substrate (Prolume Purple, NanoLight Technology, cat. #369), reconstituted at 1 mM in methanol and diluted to 37.5 µM with assay buffer (7.5 µM final assay concentration). The assay was started by the addition of 20 µL luciferase substrate to each well of the assay plate using a Multidrop^TM Combi reagent dispenser (Thermo Fisher Scientific), followed by 5 min incubation at room temperature. Then, 30 µL of agonist dilutions or DMSO control was added (final DMSO concentration 1.5%), followed by an additional 5 min incubation at room temperature. BRET² measurements were performed with a PHERAstar® FSX microplate reader (BMG LABTECH) using a BRET² filter (donor emission 370–450 nm, acceptor emission 500–530 nm) at the maximum fluorescence gain of 3600. BRET² ratios were calculated by dividing GFP emission signals from Rluc8 emission counts. Buffer-DMSO controls were subtracted from each data point to calculate ΔBRET² ratios.

[2] = molecular target: GPR55 mutant N171Q (Gα13) (Homo sapiens, UniProt Q9Y2T6, N171Q); assay: BRET² G protein dissociation assay, GPR55 N171Q with Gα13
Chain of GPR55 mutant N171Q (Gα13) (Q9Y2T6 whole entry N171Q): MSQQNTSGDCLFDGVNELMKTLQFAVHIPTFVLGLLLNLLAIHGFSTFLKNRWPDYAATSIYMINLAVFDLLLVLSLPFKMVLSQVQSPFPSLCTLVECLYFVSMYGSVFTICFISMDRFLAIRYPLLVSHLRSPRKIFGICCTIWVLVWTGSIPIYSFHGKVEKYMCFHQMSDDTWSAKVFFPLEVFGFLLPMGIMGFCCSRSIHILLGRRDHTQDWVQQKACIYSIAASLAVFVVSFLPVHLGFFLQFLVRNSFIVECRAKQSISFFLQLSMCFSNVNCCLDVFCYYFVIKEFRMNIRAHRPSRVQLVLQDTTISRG
Chain of GPR55 mutant N171Q (Gα13) (Q14344 whole entry partner): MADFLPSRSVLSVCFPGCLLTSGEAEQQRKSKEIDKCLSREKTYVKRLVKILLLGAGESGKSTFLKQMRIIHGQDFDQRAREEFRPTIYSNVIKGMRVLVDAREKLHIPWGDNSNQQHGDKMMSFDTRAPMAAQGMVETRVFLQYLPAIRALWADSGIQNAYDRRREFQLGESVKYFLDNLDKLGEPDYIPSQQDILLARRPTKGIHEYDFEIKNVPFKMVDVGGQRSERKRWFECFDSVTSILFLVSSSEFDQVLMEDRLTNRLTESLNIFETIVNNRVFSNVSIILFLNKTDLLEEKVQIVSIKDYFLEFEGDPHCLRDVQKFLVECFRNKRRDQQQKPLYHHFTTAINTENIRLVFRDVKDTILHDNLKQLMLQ
Chain of GPR55 mutant N171Q (Gα13) (P16520 whole entry partner): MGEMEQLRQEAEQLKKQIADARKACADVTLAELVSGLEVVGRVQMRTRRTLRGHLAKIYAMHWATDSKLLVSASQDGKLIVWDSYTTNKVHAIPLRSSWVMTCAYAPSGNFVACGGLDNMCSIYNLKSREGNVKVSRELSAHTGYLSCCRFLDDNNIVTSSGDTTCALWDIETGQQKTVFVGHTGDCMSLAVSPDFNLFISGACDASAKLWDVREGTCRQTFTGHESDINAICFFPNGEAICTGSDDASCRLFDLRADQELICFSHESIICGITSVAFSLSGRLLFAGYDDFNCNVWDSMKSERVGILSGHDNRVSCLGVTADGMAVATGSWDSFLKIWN
Chain of GPR55 mutant N171Q (Gα13) (O14610 1-66 partner limits assumed): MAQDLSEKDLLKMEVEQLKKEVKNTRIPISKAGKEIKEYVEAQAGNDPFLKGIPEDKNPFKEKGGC
From the text: as §1, §2

[3] = molecular target: GPR55 mutant G152F (Gα13) (Homo sapiens, UniProt Q9Y2T6, G152F); assay: BRET² G protein dissociation assay, GPR55 G152F with Gα13
Chain of GPR55 mutant G152F (Gα13) (Q9Y2T6 whole entry G152F): as the sequence (Q9Y2T6 whole entry N171Q) above, with G152F, Q171N counted along it
Chain of GPR55 mutant G152F (Gα13) (Q14344 whole entry partner): as the sequence (Q14344 whole entry partner) above
Chain of GPR55 mutant G152F (Gα13) (P16520 whole entry partner): as the sequence (P16520 whole entry partner) above
Chain of GPR55 mutant G152F (Gα13) (O14610 1-66 partner limits assumed): as the sequence (O14610 1-66 partner limits assumed) above
From the text: as §1, §2

Chain of GPR55 mutant G152W (Gα13) (Q9Y2T6 whole entry G152W, the tested form may be a part): as the sequence (Q9Y2T6 whole entry N171Q) above, with G152W, Q171N counted along it
Chain of GPR55 mutant G152W (Gα13) (Q14344 whole entry partner, the tested form may be a part): as the sequence (Q14344 whole entry partner) above
Chain of GPR55 mutant G152W (Gα13) (P16520 whole entry partner, the tested form may be a part): as the sequence (P16520 whole entry partner) above
Chain of GPR55 mutant G152W (Gα13) (O14610 1-66 partner limits assumed): as the sequence (O14610 1-66 partner limits assumed) above

Mean (plotted) BRET² response, GPR55-G152W-G13 ([1]; Concentration 300 pM): -0.02434
Mean (plotted) BRET² response, GPR55-G152W-G13 ([1]; Concentration 1e-9 M): -0.04124
Mean (plotted) BRET² response, GPR55-G152W-G13 ([1]; Concentration 3e-9 M): -0.05947
Mean (plotted) BRET² response, GPR55-G152W-G13 ([1]; Concentration 1e-8 M): -0.07141
Mean (plotted) BRET² response, GPR55-G152W-G13 ([1]; Concentration 3e-8 M): -0.07973
Mean (plotted) BRET² response, GPR55-G152W-G13 ([1]; Concentration 1e-7 M): -0.08343
Mean (plotted) BRET² response, GPR55-G152W-G13 ([1]; Concentration 3e-7 M): -0.08701
Mean (plotted) BRET² response, GPR55-G152W-G13 ([1]; Concentration 1e-6 M): -0.08751
Mean (plotted) BRET² response, GPR55-G152W-G13 ([1]; Concentration 3e-6 M): -0.0887
Mean (plotted) BRET² response, GPR55-G152W-G13 ([1]; Concentration 1e-5 M): -0.09176
Mean (plotted) BRET² response, GPR55-G152W-G13 ([1]; Concentration 3e-5 M): -0.09408
increase of potency compared to wt GPR55 ([1]; G152W mutant): 34 fold
Emax at 30 µM ([1]; GPR55 G152W, Gα13, 30 µM ligand, same normalization, read-out: Efficacy ± SEM (%)): 107 ± 1%
EC50 ([1]; GPR55 G152W, Gα13, calculated by extrapolating ΔBRET² ratios for concentrations <0.3 nM): 1.35 nM
Mean (plotted) BRET² response, GPR55-N171Q-G13 ([2]; Concentration 300 pM): -0.001828
Mean (plotted) BRET² response, GPR55-N171Q-G13 ([2]; Concentration 1e-9 M): -0.002418
Mean (plotted) BRET² response, GPR55-N171Q-G13 ([2]; Concentration 3e-9 M): -0.001477
Mean (plotted) BRET² response, GPR55-N171Q-G13 ([2]; Concentration 1e-8 M): -0.0001092
Mean (plotted) BRET² response, GPR55-N171Q-G13 ([2]; Concentration 3e-8 M): -0.001125
Mean (plotted) BRET² response, GPR55-N171Q-G13 ([2]; Concentration 1e-7 M): -0.006817
Mean (plotted) BRET² response, GPR55-N171Q-G13 ([2]; Concentration 3e-7 M): -0.01585
Mean (plotted) BRET² response, GPR55-N171Q-G13 ([2]; Concentration 1e-6 M): -0.03451
Mean (plotted) BRET² response, GPR55-N171Q-G13 ([2]; Concentration 3e-6 M): -0.05647
Mean (plotted) BRET² response, GPR55-N171Q-G13 ([2]; Concentration 1e-5 M): -0.07313
Mean (plotted) BRET² response, GPR55-N171Q-G13 ([2]; Concentration 3e-5 M): -0.08032
EC50 ([2]; GPR55 N171Q, Gα13): 1410 nM
Emax at 30 µM ([2]; GPR55 N171Q, Gα13, 30 µM ligand, same normalization, read-out: Efficacy ± SEM (%)): 76 ± 2%
reduction of potency compared to wt GPR55 ([2]; N171Q mutant): 32 fold
Mean (plotted) BRET² response, GPR55-G152F-G13 ([3]; Concentration 300 pM): -0.004043
Mean (plotted) BRET² response, GPR55-G152F-G13 ([3]; Concentration 1e-9 M): -0.005951
Mean (plotted) BRET² response, GPR55-G152F-G13 ([3]; Concentration 3e-9 M): -0.01719
Mean (plotted) BRET² response, GPR55-G152F-G13 ([3]; Concentration 1e-8 M): -0.03259
Mean (plotted) BRET² response, GPR55-G152F-G13 ([3]; Concentration 3e-8 M): -0.04406
Mean (plotted) BRET² response, GPR55-G152F-G13 ([3]; Concentration 1e-7 M): -0.05628
Mean (plotted) BRET² response, GPR55-G152F-G13 ([3]; Concentration 3e-7 M): -0.06251
Mean (plotted) BRET² response, GPR55-G152F-G13 ([3]; Concentration 1e-6 M): -0.06831
Mean (plotted) BRET² response, GPR55-G152F-G13 ([3]; Concentration 3e-6 M): -0.07057
Mean (plotted) BRET² response, GPR55-G152F-G13 ([3]; Concentration 1e-5 M): -0.07761
Mean (plotted) BRET² response, GPR55-G152F-G13 ([3]; Concentration 3e-5 M): -0.07919
reduction of potency compared to wt GPR55 ([3]; G152F mutant): remained unchanged
EC50 ([3]; GPR55 G152F, Gα13): 21.9 nM
Emax at 30 µM ([3]; GPR55 G152F, Gα13, 30 µM ligand, same normalization, read-out: Efficacy ± SEM (%)): 108 ± 3%
Structure (SMILES): Cc1cccc(N2CCN(C(=O)c3cc(S(=O)(=O)N(C)C)ccc3N3CCCC3)CC2)c1C [ML184, 3-[[4-(2,3-dimethylphenyl)-1-piperazinyl]carbonyl]-N,N-dimethyl-4-(1-pyrrolidinyl)benzenesulfonamide]
